From patent publication US8586743B2, “Labeling reagents and methods of their use” (Life Technologies Corporation, priority 2007, dated 2013)

Key:
[1] = Hydrolysis half-life by HPLC (percent hydrolysis) at room temperature
Procedure: (§1) Samples were incubated at room temperature in the indicated solution.
(§2) 2-(6-amino-3-iminio-4,5-disulfonato-3H-xanthen-9-yl)benzoate, comprising an SDP ester was prepared and compared to commercially available 2-(6-amino-3-iminio-4,5-disulfonato-3H-xanthen-9-yl)benzoate comprising a succinimidyl ester (SE) and 2-(6-amino-3-iminio-4,5-disulfonato-3H-xanthen-9-yl)benzoate comprising a TFP for hydrolytic stability in 25 mM Pi buffer pH 8.6.

[2] = buffer, pH 8.6
Procedure: as §1, §2

[3] = phosphate buffer with imidazole, pH 8.6

| half-life ([1]; phosphate buffer, pH 8.6) | half-life (hydrolytic stability) [2] | half-life ([1]; DMSO) | half-life ([1]; HEPES buffer, pH 8.2) | half-life ([1]; Tris buffer with NaN3, pH 8.6) | half-life ([1]; Tris buffer, pH 7) | half-life ([1]; Tris buffer, pH 8.6) | half-life ([1]; borate buffer, pH 8.6) | half-life [1, 3] | half-life ([1]; phosphate buffer, pH 7.2) | half-life ([1]; water) | Structure (SMILES) |
| --- | --- | --- | --- | --- | --- | --- | --- | --- | --- | --- | --- |
| 1.75 h | – | – | – | – | – | – | – | – | – | – | CC1(C)C(/C=C/C=C/C=C2\N(CCCS(=O)(=O)O)c3ccc(S(=O)(=O)[O-])cc3C2(C)CCCCCC(=O)ON2C(=O)CCC2=O)=[N+](CCCS(=O)(=O)O)c2ccc(S(=O)(=O)O)cc21 (stereo not shown) [Compound 121, reference compound] |
| 28 h | 28 h | 384 h | 159 h | 1.58 h | 1020 h | 77 h | 3.5 h | 0.633 h | 245 h | 504 h | N=c1ccc2c(-c3ccc(C(=O)Oc4c(Cl)cc(S(=O)(=O)O)cc4Cl)cc3C(=O)O)c3ccc(N)c(S(=O)(=O)O)c3oc-2c1S(=O)(=O)O [Compound 102] |
| 1.7 h | – | – | – | – | – | – | – | – | – | – | CC1(C)C(/C=C/C=C/C=C2\N(CCCS(=O)(=O)O)c3ccc(S(=O)(=O)[O-])cc3C2(C)CCCCCC(=O)Oc2c(Cl)cc(S(=O)(=O)O)cc2Cl)=[N+](CCCS(=O)(=O)O)c2ccc(S(=O)(=O)O)cc21 (stereo not shown) [Compound 114] |
| 1.3 h | – | – | 6.5 h | < 0.0167 h | 13.9 h | 2.32 h | < 0.0833 h | < 0.0333 h | 2.88 h | – | N=c1ccc2c(-c3ccc(C(=O)Oc4c(F)c(F)cc(F)c4F)cc3C(=O)O)c3ccc(N)c(S(=O)(=O)O)c3oc-2c1S(=O)(=O)O [Compound 120, reference compound] |
| 17 h | – | – | – | – | – | – | – | – | – | – | N=c1ccc2c(-c3cc(C(=O)Oc4c(Cl)cc(S(=O)(=O)O)cc4Cl)ccc3C(=O)O)c3ccc(N)c(S(=O)(=O)O)c3oc-2c1S(=O)(=O)O [Compound 104] |
